Assays:
[1] = target: T1, OsSNAT1 (rice recombinant SNAT1) (Oryza sativa, UniProt Q5KQI6); assay: HPLC-fluorescence of N-acetylserotonin formed; assay type: biochemical
T1 construct: N-terminal 83 residues deleted; E. coli, plasmid pET300-Δ83SNAT1; purified recombinant

[2] = target: T2, OsSNAT2 (rice recombinant SNAT2) (Oryza sativa, UniProt Q6Z1Y6); assay: HPLC-fluorescence of N-acetylserotonin formed; assay type: biochemical
T2 construct: N-terminal 34 residues deleted; purified recombinant
T2 sequence (Q6Z1Y6 35-200): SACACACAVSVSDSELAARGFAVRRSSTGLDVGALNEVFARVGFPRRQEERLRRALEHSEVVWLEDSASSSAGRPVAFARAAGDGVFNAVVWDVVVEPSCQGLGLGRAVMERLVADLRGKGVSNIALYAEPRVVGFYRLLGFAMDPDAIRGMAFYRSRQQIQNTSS

T1 sequence (Q5KQI6 84-254): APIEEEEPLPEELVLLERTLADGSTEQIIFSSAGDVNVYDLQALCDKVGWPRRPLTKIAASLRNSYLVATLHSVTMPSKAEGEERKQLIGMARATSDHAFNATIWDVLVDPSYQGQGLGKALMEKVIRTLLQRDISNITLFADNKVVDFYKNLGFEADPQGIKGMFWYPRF

inhibition at 50 µM [1]: 80%
inhibition at 100 µM [2]: 28%
Structure (SMILES): CCCCCCCc1ccc(CCc2cccc(O)c2C(=O)O)cc1 [MG149]

Source: PMC8145546, “Inhibition of Rice Serotonin N-Acetyltransferases by MG149 Decreased Melatonin Synthesis in Rice Seedlings” (Biomolecules, 2021)
